Tests used:
[1] = biological target: Acetylcholinesterase (Electrophorus electricus) (UniProt O42275); assay: (§1) Inhibition of electric eel AChE by Ellman's method
Acetylcholinesterase = Acetylcholinesterase (Electrophorus electricus, UniProt O42275); assay: as §1
[2] = Lipophilicity, log D of the compound; type: physicochemical; details: octanol/water

Sequence of Acetylcholinesterase (O42275 whole entry): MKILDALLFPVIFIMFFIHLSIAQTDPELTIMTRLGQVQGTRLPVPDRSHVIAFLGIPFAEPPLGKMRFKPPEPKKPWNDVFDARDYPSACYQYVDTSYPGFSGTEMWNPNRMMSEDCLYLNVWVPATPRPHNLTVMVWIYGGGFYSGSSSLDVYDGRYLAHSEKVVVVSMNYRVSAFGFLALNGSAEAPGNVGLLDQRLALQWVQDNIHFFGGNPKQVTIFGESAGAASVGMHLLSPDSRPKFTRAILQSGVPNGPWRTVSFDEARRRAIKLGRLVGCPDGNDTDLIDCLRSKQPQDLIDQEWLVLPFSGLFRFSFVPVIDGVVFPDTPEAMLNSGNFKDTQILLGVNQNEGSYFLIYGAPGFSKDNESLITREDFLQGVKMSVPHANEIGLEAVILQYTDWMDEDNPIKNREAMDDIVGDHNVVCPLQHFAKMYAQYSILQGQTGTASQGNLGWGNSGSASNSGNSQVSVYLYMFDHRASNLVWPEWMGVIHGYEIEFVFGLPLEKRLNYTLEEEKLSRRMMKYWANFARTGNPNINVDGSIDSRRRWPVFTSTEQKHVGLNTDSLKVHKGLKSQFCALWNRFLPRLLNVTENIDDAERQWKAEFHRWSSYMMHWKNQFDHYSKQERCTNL
Sequence of Acetylcholinesterase (Electrophorus electricus) (O42275 24-633 limits assumed): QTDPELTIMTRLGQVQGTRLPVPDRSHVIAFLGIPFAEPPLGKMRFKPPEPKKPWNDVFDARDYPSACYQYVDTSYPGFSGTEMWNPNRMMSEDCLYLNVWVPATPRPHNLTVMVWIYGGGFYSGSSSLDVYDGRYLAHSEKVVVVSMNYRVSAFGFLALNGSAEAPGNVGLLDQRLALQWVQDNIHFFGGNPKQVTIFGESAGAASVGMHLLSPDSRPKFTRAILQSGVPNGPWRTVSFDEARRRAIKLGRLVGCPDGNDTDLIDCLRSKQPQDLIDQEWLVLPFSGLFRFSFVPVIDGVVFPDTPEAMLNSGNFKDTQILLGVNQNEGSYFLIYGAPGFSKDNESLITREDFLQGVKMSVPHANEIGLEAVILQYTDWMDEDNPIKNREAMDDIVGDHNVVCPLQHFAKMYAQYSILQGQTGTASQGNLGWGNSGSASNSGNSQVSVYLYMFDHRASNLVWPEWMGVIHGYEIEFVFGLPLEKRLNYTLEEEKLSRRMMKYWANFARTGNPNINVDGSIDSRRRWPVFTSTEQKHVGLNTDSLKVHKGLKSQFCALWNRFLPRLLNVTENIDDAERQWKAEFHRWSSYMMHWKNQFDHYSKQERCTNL

| SMILES | inhibition [1] | IC50 (Acetylcholinesterase) [µM] | logD [2] |
| --- | --- | --- | --- |
| C=CCn1c2ccccc2c2nnc(SCC(=O)Nc3ccc(S(N)(=O)=O)cc3)nc21 | Dose-dependent effect | 6.5 | 1.34 |
| C=CCn1c(SCCCC(=O)Nc2ccc(S(N)(=O)=O)cc2)nc2sc3c(c2c1=O)CCCC3 | Dose-dependent effect | 2.5 | 3.93 |
| COc1ccc(NC(=O)c2ccc(NS(=O)(=O)c3cc4c5c(cccc5c3)C(=O)N4)cc2)cc1 |  | > 100 | 2.95 |
| O=C1Nc2cc(S(=O)(=O)Nc3ccc(Oc4ccccc4)cc3)cc3cccc1c23 |  | 9.9 | 3.74 |
| COc1cc(/C=C/C(=O)NCCCCNc2c3c(nc4ccccc24)CCCC3)ccc1O |  |  | 5.33 |
| C=C(C)COc1cc(C)cc2oc(=O)c(CC(=O)NCc3ccc(S(N)(=O)=O)cc3)c(C)c12 |  | 12.3 | 3.4 |
| CCOc1cc(C(=O)NNC(=S)Nc2ccc(S(N)(=O)=O)cc2)cc(OCC)c1OCC | Dose-dependent effect | 4.8 | 2.65 |
| CC(=O)Nc1ccc(-c2nnc(SCC(=O)Nc3ccc(Br)cc3Cl)n2C)cc1 |  | 10.5 | 3.61 |
| COc1cc(/C=C/C(=O)NCCCCCNc2c3c(nc4ccccc24)CCCC3)ccc1O |  |  | 5.78 |
| O=C1Nc2ccccc2/C1=N/NC(=O)c1ccc(Nc2nc(-c3ccccc3)cs2)cc1 |  | 9.5 | 4.26 |
| COc1cc(/C=N/NC(=O)c2ccc(COc3c(F)c(F)c(F)c(F)c3F)cc2)ccc1O |  | 6.7 | 5.02 |
| COc1cc(/C=N/NC(=O)c2ccc(COc3cccc(Cl)c3)o2)cc(Br)c1O |  | 9.8 | 4.86 |
| CCOc1cc(/C=N/NC(=O)c2cc(-c3cccc(OC)c3)n[nH]2)ccc1O |  | 7.8 | 3.44 |
| CCNS(=O)(=O)c1ccc(NC(=O)c2ccc(Cn3nc(C)cc3C)o2)cc1 | Dose-dependent effect | 1.5 | 2.01 |
| CC1CCc2c(sc3nc(SCC(=O)Nc4ccc(S(N)(=O)=O)cc4)n(N)c(=O)c23)C1 (configuration not stated) | Dose-dependent effect | 5.9 | 2.3 |
| COc1cc(/C=N/NC(=O)CSc2nnc(-c3ccc(OC)c(OC)c3)n2-c2ccccc2)ccc1O |  | > 100 | 4.4 |
| Cc1cccc(OCC(=O)Nc2cccc(Oc3ccc4c(c3)C(=O)NC4=O)c2)c1C |  | 14.9 | 3.81 |
